Test results from paper PMC6963856, “Increases in Hydrophilicity and Charge on the Polar Face of Alyteserin 1c Helix Change its Selectivity towards Gram-Positive Bacteria” (Antibiotics, 2019).
Where no end group is shown, it is not given here.

Key:
[1] = tested on: S. aureus ATCC25923; format: cell-based, Staphylococcus aureus
Procedure: (§1) Antimicrobial assays were performed according to the Clinical and Laboratory Standards Institute, CLSI [45] with slight modifications. A bacterial culture in Mueller Hinton broth in exponential phase was diluted in Mueller Hinton broth until reaching an OD625 of 0.1 (approximately 1 × 10^8 CFU/mL). Then, this culture was diluted once more by a factor of 1:200. Subsequently, 90 µL of bacterial culture was incubated with 10 µL of peptide to reach a final inoculum of approximately 5 × 10^5 CFU/mL. The incubation time was 18–20 h in sterile 96-well plates at 37 °C. The peptides were applied at different serial dilutions (diluted in half) from 250 μM to 0.97 μM. As a negative control, phosphate-buffered saline (PBS; 138 mM NaCl, 3 mM KCl, 1.5 mM NaH2PO4, 8.1 mM Na2HPO4, pH 7.4) was used. After incubation, bacterial growth was visualized to obtain the minimum inhibitory concentration (MIC).

[2] = tested on: S. aureus ATCC29213 (MSSA, ampicillin-resistant); format: cell-based, Staphylococcus aureus
Procedure: as §1

[3] = tested on: S. aureus ATCC43300 (MRSA); format: cell-based, Staphylococcus aureus
Procedure: as §1

[4] = tested on: B. cereus ATCC11778; format: cell-based
Procedure: as §1

[5] = tested on: L. monocytogenes ATCCbaa751; format: cell-based
Procedure: as §1

[6] = tested on: S. typhimurium ATCC14028; format: cell-based
Procedure: as §1

[7] = tested on: E. coli ATCC25922; format: cell-based, Escherichia coli
Procedure: as §1

[8] = tested on: P. aeruginosa ATCC9027; format: cell-based
Procedure: as §1

[9] = tested on: human erythrocytes; settings: cited from earlier work
Text: A peptide of 23 amino acid residues with a net charge of +2, Alyerserin-1c (WT), was isolated for the first time from the cutaneous secretions of the Alytes obstetricans toad. […] Furthermore, the three-dimensional structure of Alyteserin-1c was characterized as an extended α-helix between Leu2 and Val21 residues. In a recent study by Aragón-Muriel et al., it was reported that the Alyteserin-1 ...

| Substance | MIC S. aureus ATCC25923 [1] | MIC S. aureus ATCC29213 [2] | MIC S. aureus ATCC43300 [3] | MIC B. cereus ATCC11778 [4] | MIC L. monocytogenes ATCCbaa751 [5] | MIC S. typhimurium ATCC14028 [6] | MIC E. coli ATCC25922 [7] | MIC P. aeruginosa ATCC9027 [8] | HC50 human erythrocytes [9] |
| --- | --- | --- | --- | --- | --- | --- | --- | --- | --- |
| GLKRIFKSGLGKLVKGISAHVAS-NH2 [ΔM] | 62.5 µM | 250 µM | 250 µM | 125 µM | 62.5 µM | 125 µM | 62.5 µM |  |  |
| GLKEIFKAGLGSLVKGIAAHVAS-NH2 [WT, Alyteserin-1c, reference compound] | 250 µM |  |  |  | 125 µM |  | 15.2 µM | 31.3 µM | 220 µM |
